# Target: T1, Human KDR (Homo sapiens, UniProt P35968)
# T1 construct: expressed in transfected cells; host or cells: NIH3T3 cells (mouse fibroblasts)
# Assay: Inhibition of KDR phosphorylation in human KDR-transfected NIH3T3 cells (ELISA)
# Format: cell-based
# Conditions: for Selection ratio (KDR phosphorylation IC50 / c-fms phosphorylation IC50): class 0-3; for IC50: human KDR-transfected NIH3T3 cells, VEGF 100 ng/ml, ELISA, read-out: KDR phosphorylation 50% inhibitory concentration (IC50)
# Procedure: Human KDR-transfected NIH3T3 cells (Sawano A et al., Cell Growth & Differentiation, 7, 213-221 (1996)) were cultured in a DMEM medium containing 10% fetal calf serum (purchased from GIBCO BRL) within a 5% carbon dioxide incubator until 50 to 70% confluent. The harvested cells were seeded into wells, containing the same medium, in a collagen type 1 coat 96-well flat-bottom plate in an amount of 1.5×10^4 per well, and cultured at 37° C. overnight. The medium was replaced with a 0.1% fetal calf serum-containing DMEM medium. The test compound dissolved in dimethyl sulfoxide was added to each well, and the cultivation was continued at 37° C. for additional one hr. A human recombinant vascular endothelial growth factor (hereinafter abbreviated to “VEGF”) was added to a final concentration of 100 ng/ml, followed by stimulation of cells at 37° C. for 2 min. The medium was removed, and the cells were washed with phosphate buffered saline (pH 7.4). A solubilization buffer (50 μl) (20 mM HEPES (pH 7.4), 150 mM NaCl, 0.2% Triton X-100, 10% glycerol, 5 mM sodium orthovanadylate, 5 mM disodium ethylenediaminetetraacetate, and 2 mM Na4P2O7) was then added thereto. The mixture was shaken at 4° C. for 2 hr to prepare a cell extract.
# Separately, phosphate buffered saline (50 μl, pH 7.4) containing 5 μg/ml of anti-phospho-tyrosine antibody (PY20; purchased from Transduction Laboratories) was added to a microplate for ELISA (Maxisorp; purchased from NUNC), followed by standing at 4° C. overnight to be immobilized on the wells. After washing of the plate, 300 μl of a blocking solution was added, followed by standing at room temperature for 2 hr to perform blocking. After washing, the whole cell extract was transferred and was allowed to stand at 4° C. overnight. After washing, an anti-KDR antibody (purchased from Santa Cruz Biotechnology) was allowed to react at room temperature for one hr. Further, after washing, a peroxidase-labeled anti-rabbit Ig antibody (purchased from Amersham) was allowed to react at room temperature for one hr. After washing, a chromophoric substrate for peroxidase (purchased from Sumitomo Bakelite Co., Ltd.) was added thereto to initiate a reaction. After a suitable level of color development, a reaction termination solution was added to stop the reaction, and the absorbance at 450 nm was measured with a microplate reader. The KDR phosphorylation activity for each well was determined by presuming the absorbance without the addition of the test compound and with the addition of VEGF to be 100% KDR phosphorylation activity and the absorbance without the addition of the test compound and VEGF to be 0% KDR phosphorylation activity. The concentration of the test compound was varied on several levels, the KDR phosphorylation inhibitory rate was determined for each case, and the concentration of the test compound necessary for inhibiting 50% of KDR phosphorylation (IC50) was calculated.
# T1 sequence (P35968 20-1356): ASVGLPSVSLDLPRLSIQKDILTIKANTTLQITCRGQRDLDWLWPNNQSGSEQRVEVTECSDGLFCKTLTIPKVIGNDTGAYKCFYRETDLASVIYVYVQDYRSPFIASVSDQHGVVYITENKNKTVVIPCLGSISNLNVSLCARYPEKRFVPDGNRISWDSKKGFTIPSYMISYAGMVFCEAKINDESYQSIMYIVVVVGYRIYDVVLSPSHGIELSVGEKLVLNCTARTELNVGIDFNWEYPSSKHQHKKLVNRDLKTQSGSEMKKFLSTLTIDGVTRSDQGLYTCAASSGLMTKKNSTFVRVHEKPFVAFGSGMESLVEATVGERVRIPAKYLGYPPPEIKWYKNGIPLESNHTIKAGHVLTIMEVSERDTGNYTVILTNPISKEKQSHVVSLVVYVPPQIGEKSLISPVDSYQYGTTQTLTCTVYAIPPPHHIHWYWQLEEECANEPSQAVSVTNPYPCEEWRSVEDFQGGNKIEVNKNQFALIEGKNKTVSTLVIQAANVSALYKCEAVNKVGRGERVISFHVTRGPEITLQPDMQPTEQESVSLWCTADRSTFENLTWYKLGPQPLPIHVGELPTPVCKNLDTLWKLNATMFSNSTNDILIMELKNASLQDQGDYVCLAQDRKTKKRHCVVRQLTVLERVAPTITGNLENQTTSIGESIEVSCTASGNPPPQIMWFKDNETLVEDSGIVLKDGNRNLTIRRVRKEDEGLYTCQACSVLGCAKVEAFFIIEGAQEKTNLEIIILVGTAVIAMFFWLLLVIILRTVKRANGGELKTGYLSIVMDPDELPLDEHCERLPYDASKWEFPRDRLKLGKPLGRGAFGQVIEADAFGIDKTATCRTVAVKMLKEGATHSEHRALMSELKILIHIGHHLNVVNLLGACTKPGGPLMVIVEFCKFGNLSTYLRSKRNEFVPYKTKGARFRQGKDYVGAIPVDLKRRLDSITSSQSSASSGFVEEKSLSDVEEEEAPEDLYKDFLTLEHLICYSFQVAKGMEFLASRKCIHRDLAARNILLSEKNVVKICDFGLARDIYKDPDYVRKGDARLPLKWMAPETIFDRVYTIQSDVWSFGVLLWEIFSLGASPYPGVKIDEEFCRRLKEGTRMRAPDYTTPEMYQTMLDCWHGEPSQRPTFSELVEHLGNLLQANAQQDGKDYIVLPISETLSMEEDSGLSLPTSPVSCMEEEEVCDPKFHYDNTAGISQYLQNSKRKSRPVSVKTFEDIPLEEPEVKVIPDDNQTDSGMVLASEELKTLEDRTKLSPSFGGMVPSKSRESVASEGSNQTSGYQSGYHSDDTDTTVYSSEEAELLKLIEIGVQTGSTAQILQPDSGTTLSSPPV
Compound,IC50,Selection ratio (KDR phosphorylation IC50 / c-fms phosphorylation IC50)
"COc1cc2nccc(Oc3ccc(NC(=O)N[C@H](C)c4nccs4)c(C(F)(F)F)c3)c2cc1OC [Example 85, N-[4-[(6,7-Dimethoxy-4-quinolyl)oxy]-2-(trifluoromethyl)phenyl]-N′-[(1R)-1-(1,3-thiazol-2-yl)ethyl]urea]",0.0216 µM,0 (KDR phosphorylation 50% inhibitory concentration [μM]/c-fms phosphorylation 50% inhibitory concentration [μM] was less than 5)
"COc1cc(Oc2ccnc3cc(OC)c(OC)cc23)ccc1NC(=O)NC(C)c1nc(C)c(C)s1 (centres unmarked) [Example 99, N-{4-[(6,7-Dimethoxy-4-quinolyl)oxy]-2-methoxyphenyl}-N′-[1-(4,5-dimethyl-1,3-thiazol-2-yl)ethyl]urea]",0.292 µM,2 (when the value was 10 or more)
"COc1cc2c(Oc3ccc(NC(=O)NC(C)c4ccc(F)c(F)c4)cc3F)ccnc2cc1OCCCN1CCOCC1 (centres unmarked) [Example 65, N-[1-(3,4-Difluorophenyl)ethyl]-N′-(3-fluoro-4-{[6-methoxy-7-(3-morpholinopropoxy)-4-quinolyl]oxy}phenyl)urea]",0.0319 µM,0 (KDR phosphorylation 50% inhibitory concentration [μM]/c-fms phosphorylation 50% inhibitory concentration [μM] was less than 5)
"COc1ccc([C@@H](C)NC(=O)Nc2ccc(Oc3ccnc4cc(OC)c(OC)cc34)cc2)cc1 [Example 54, N-{4-[(6,7-Dimethoxy-4-quinolyl)oxy]phenyl}-N′-[(1R)-1-(4-methoxyphenyl)ethyl]urea]",0.574 µM,1 (when the value was 5 or more)

# Continued, in another order:
IC50,Compound,Selection ratio (KDR phosphorylation IC50 / c-fms phosphorylation IC50)
0.001 µM,"COc1cc2nccc(Oc3ccc(NC(=O)NC(C)c4ccc(F)cc4)c(Cl)c3)c2cc1OC (centres unmarked) [Example 4, N-{2-Chloro-4-[(6,7-dimethoxy-4-quinolyl)oxy]phenyl}-N′-[1-(4-fluorophenyl)ethyl]urea]",0 (KDR phosphorylation 50% inhibitory concentration [μM]/c-fms phosphorylation 50% inhibitory concentration [μM] was less than 5)
0.0018 µM,"COc1cc(Oc2ccnc3cc(OC)c(OC)cc23)ccc1NC(=O)N[C@H](C)c1ccc(F)cc1 [Example 18, N-{4-[(6,7-Dimethoxy-4-quinolyl)oxy]-2-methoxyphenyl}-N′-[(1R)-1-(4-fluorophenyl)ethyl]urea]",0 (KDR phosphorylation 50% inhibitory concentration [μM]/c-fms phosphorylation 50% inhibitory concentration [μM] was less than 5)
1.05 µM,"COc1cc2nccc(Oc3ccc(NC(=O)N[C@@H](C)c4nccs4)cc3OC)c2cc1OC [Example 81, N-{4-[(6,7-Dimethoxy-4-quinolyl)oxy]-3-methoxyphenyl}-N′-[(1S)-1-(1,3-thiazol-2-yl)ethyl]urea]",3 (when the value was 50 or more)
0.0024 µM,"COc1cc2nccc(Oc3ccc(NC(=O)N[C@H](C)c4ccc(F)cc4)cc3OC)c2cc1OC [Example 24, N-{4-[(6,7-Dimethoxy-4-quinolyl)oxy]-3-methoxyphenyl}-N′-[(1R)-1-(4-fluorophenyl)ethyl]urea]",0 (KDR phosphorylation 50% inhibitory concentration [μM]/c-fms phosphorylation 50% inhibitory concentration [μM] was less than 5)
0.0192 µM,"COc1cc2nccc(Oc3ccc(NC(=O)N[C@H](C)c4cccc(Br)c4)cc3OC)c2cc1OC [Example 61, N-[(1R)-1-(3-Bromophenyl)ethyl]-N′-{4-[(6,7-dimethoxy-4-quinolyl)oxy]-3-methoxyphenyl}urea]",0 (KDR phosphorylation 50% inhibitory concentration [μM]/c-fms phosphorylation 50% inhibitory concentration [μM] was less than 5)
< 0.001 µM,"COc1cc2nccc(Oc3ccc(NC(=O)NC(C)c4ccc(F)cc4)c(C)c3)c2cc1OC (centres unmarked) [Example 13, N-{4-[(6,7-Dimethoxy-4-quinolyl)oxy]-2-methylphenyl}-N′-[1-(4-fluorophenyl)ethyl]urea]",0 (KDR phosphorylation 50% inhibitory concentration [μM]/c-fms phosphorylation 50% inhibitory concentration [μM] was less than 5)

# — US7598258B2, “Quinoline derivatives and quinazoline derivatives inhibiting autophosphorylation of macrophage colony stimulating factor receptor” (Kirin Beer Kabushiki Kaisha, priority 2002, dated 2009)
